Measurements as given in patent US20150342954A1, “2-BENZYL, 3-(PYRIMIDIN-2-YL) SUBSTITUTED PYRAZOLES USEFUL AS SGC STIMULATORS” (IRONWOOD PHARMACEUTICALS, INC., priority 2011, published 2015).
Like-named read-outs stand apart in the source and are kept apart here.

How the values were obtained:
[1] = biological target: T1, Human soluble guanylate cyclase enzyme (hsGC) (Homo sapiens, UniProt Q02108+Q02153); experiment: Purified human sGC enzyme activity assay (without SNP); assay type: biochemical; settings: compound at 30 μM, absence of SNP; fold over DMSO control; Table 5A
T1 construct: purchased Enzo Inc. ALX-201-177
T1 sequence (Q02153 1-619): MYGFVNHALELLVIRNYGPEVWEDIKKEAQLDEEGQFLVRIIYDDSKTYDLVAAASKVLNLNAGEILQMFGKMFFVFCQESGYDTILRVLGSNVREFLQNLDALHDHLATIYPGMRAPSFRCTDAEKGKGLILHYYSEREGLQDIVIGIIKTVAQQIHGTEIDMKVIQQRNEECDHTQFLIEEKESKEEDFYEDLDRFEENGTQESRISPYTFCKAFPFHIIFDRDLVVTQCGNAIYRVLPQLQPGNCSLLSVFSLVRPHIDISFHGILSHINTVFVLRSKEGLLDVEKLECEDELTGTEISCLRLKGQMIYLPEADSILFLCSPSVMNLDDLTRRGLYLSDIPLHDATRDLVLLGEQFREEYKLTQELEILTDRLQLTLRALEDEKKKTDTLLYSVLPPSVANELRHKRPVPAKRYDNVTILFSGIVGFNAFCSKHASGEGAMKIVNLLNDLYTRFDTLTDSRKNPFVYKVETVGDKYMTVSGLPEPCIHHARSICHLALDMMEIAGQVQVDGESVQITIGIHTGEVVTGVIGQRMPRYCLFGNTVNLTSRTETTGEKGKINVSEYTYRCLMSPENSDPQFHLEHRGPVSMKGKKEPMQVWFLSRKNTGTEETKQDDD
T1 sequence (Q02108 1-690): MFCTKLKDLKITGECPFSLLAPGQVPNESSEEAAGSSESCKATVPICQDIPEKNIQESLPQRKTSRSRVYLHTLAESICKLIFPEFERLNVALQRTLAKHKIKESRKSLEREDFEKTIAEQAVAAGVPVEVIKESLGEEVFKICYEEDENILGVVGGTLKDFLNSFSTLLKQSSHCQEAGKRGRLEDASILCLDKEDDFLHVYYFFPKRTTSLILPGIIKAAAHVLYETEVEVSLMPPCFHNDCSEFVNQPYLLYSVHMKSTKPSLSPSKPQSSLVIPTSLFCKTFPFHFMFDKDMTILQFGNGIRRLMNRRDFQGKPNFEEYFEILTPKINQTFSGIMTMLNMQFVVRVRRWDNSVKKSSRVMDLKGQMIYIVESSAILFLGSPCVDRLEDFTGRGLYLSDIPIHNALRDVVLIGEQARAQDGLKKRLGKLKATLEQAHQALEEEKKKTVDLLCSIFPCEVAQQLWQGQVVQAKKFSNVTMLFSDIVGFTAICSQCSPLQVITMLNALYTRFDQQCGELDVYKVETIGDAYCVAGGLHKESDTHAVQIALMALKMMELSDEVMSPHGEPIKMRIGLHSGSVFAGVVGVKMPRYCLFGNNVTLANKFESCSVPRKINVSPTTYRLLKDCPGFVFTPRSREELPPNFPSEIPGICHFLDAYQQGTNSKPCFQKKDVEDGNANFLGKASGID
Procedure: Biological Activity Measurements by the Purified Human sGC Enzyme Activity Assay
(§1) Human soluble guanylate cyclase enzyme (hsGC) obtained from Enzo Inc. (P/N: ALX-201-177) was used to evaluate the activity of test compounds. The assay reactions contained 0.1 M Tris (pH 8.0), 0.5 mg/mL BSA (pH 8.0), 2 mM DTT, 2 mM MgCl2, 300 μM GTP, 1 mM 3-isobutyl-1-methylxanthine (IBMX) and 5 ng human soluble guanylate cyclase enzyme. Test compounds in DMSO were then added (2 μL, 10 or 30 μM final concentration) and incubated (200 μL, 96-well plate format) at 37° C. for 30 minutes. The controls were carried out using 2 μL DMSO. After the 30 minute incubation, the reaction was stopped with the addition of 200 μl of cold methanol. The plate was then centrifuged at 3,200 rpm for 10 minutes at room temperature. Supernatants (200 μL) were collected and transferred to a new 96 well plate for analysis.
(§2) An 8 point cGMP (Sigma-Aldrich P/N: G6129) standard curve was prepared in assay buffer ranging from 0.156-20 μM. Samples for the cGMP standard curve were then diluted with an equal volume of methanol resulting in final cGMP concentrations of 0.078-10 μM.
(§3) The cGMP standard curve was generated using GraphPad Prism Software.
(§4) Calculations: Specific Activity was determined by the amount of cGMP formed (nmoles) per mg of sGC per min. Enzyme “fold-change” was calculated by dividing Specific Activity for test compounds by Specific Activity of DMSO controls.

[2] = biological target: T1, Human soluble guanylate cyclase enzyme (hsGC); experiment: Purified human sGC enzyme synergy assay in the presence of 1 μM sodium nitroprusside (SNP); assay type: biochemical; settings: compound at 30 μM, presence of 1 μM SNP; Table 5A
Procedure: as §1, §2, §3, §4
Biological Measurement by the Purified Human sGC Enzyme Synergy Performed in the Presence of Sodium Nitroprusside (SNP), a Nitric Oxide Donor
Enzyme assays were performed as described above, but was done in the absence or presence of 1 μM sodium nitroprusside (SNP).

[3] = biological target: T2, soluble guanylate cyclase (sGC) (Homo sapiens, UniProt Q02108+Q02153); experiment: sGC-HEK-cGMP assay (run with SNP incubation); assay type: cell-based; settings: for Emax: Table 3A, 10 μM SNP, 100% = 30 μM BAY 41-2272 with 10 μM SNP, read-out: HEK assay Emax-unconstrained (Percent); for HEK MEC-10: concentration that would elicit 10% of the Emax in the presence of 10 μM SNP; for HEK MEC-10 / EC50: Table 3D; for EC50: in the presence of 10 μM SNP
T2 construct: endogenously expressing soluble guanylate cyclase (sGC); endogenous in cells; host or cells: HEK293
T2 sequence (Q02153 1-619): T1 sequence (Q02153 1-619)
T2 sequence (Q02108 1-690): T1 sequence (Q02108 1-690)
Procedure: Biological Activity Measurement by the sGC-HEK-cGMP Assay
(Assay Run with SNP Incubation)
Human embryonic kidney cells (HEK293), endogenously expressing soluble guanylate cyclase (sGC), were used to evaluate the activity of test compounds. Compounds stimulating the sGC receptor should cause an increase in the intracellular concentration of cGMP. HEK 293 cells were seeded in Dulbecco's Modification of Eagle's Medium supplemented with fetal bovine serum (10% final) and L-glutamine (2 mM final) in a 2004 volume at a density of 1×10^5 cells/well in a poly-D-lysine coated 96 well flat bottom plate and grown overnight at 37° C. Medium was aspirated and cells were washed with 1× Hank's Buffered Saline Salt Solution (2004). Cells were then incubated for 15 minutes at 37° C. with 0.5 mM 3-isobutyl-1-methylxanthine (2004). Test article and sodium nitroprusside were then added to the assay mixture (24 each) and incubated at 37° C. for 10 minutes. After the 10 minute incubation, the assay mixture was aspirated and 0.1M HCl (2004) was added to the cells. The plate was incubated at 4° C. for 30 minutes in the 0.1M HCl to stop the reaction and lysed the cells. The plates were then centrifuged at 1,200 g for 5 minutes at room temperature. Supernatants were collected and transferred to a new flat bottom 96 well plate for analysis. Vehicle controls were carried out using DMSO (1%). A known sGC stimulator, BAY 41-2272, was used as the positive control. Samples were diluted with an equal volume of 1 M Ammonium Acetate (pH 7) to neutralize samples for better chromatography. A 2×cGMP standard curve was prepared in 0.1 M HCl and then diluted with an equal volume of 1 M Ammonium Acetate, with the following final concentrations in nM: 1024, 512, 256, 128, 64, 32, 16, 8, 4, 2, 1.cGMP concentrations were determined from each sample using the LC/MS conditions (Table 2 below) and calculated standard curve. EC50 values were calculated from concentration-response curves generated with GraphPad Prism Software.

[4] = top of concentration-response curve not fitted to 100%
[5] = top of concentration-response curve not fitted to 100%, read-out: HEK assay EC50-unconstrained

SMILES | Enzyme Activity (increase at 30 μM without SNP) [1] | Enzyme Activity (increase at 30 μM with SNP) [2] | Emax [3, 4] | HEK MEC-10 [3] | EC50 ([3]; read-out: HEK assay EC50) | EC50 [3, 5]
O=c1[nH]c(-c2cc(-c3ccon3)n(Cc3ccncc3F)n2)ncc1F [Compound 26] | A (no increase to <2 fold increase) | A (no increase to <2 fold increase) |  |  |  | 
COc1nc(-c2cc(-c3ccon3)n(Cc3ccccc3F)n2)ncc1F [Compound 28] | C (5 to <10 fold increase) | D (10 or <20 fold increase) | 60 to 80% | B (0.01 to <0.1 μM) |  | 
CSc1cnc(-c2cc(-c3ccon3)n(Cc3ccccc3F)n2)nc1O [Compound 29, 2-(1-(2-fluorobenzyl)-5-(isoxazol-3-yl)-1H-pyrazol-3-yl)-5-(methylthio)pyrimidin-4-ol] | B (2 to <5 fold increase) | D (10 or <20 fold increase) | 40 to 60% | E (10 to 50 μM) | < 20 µM | 5 to 10 µM
Nc1nc(-c2cc(-c3ncco3)n(Cc3ccccc3F)n2)ncc1NC(=O)C1(F)CC1 [Compound 31] | B (2 to <5 fold increase) | D (10 or <20 fold increase) | 80 to 100% | C (0.1 to <1 μM) | < 20 µM | 1 to 5 µM
Fc1ccccc1Cn1nc(-c2ncccn2)c(F)c1-c1ccon1 [Compound 34] | B (2 to <5 fold increase) | D (10 or <20 fold increase) | 20 to 40% | D (1 to <10 μM) | 60 to 100 µM | 1 to 5 µM
Oc1nc(-c2cc(-c3ccon3)n(Cc3ccccc3F)n2)ncc1-c1ncco1 [Compound 38] | B (2 to <5 fold increase) | C (5 to <10 fold increase) | 80 to 100% | D (1 to <10 μM) | < 20 µM | 5 to 10 µM
Oc1nc(-c2cc(-c3ccon3)n(Cc3ccccc3F)n2)ncc1Sc1ccccc1 [Compound 39, 2-(1-(2-fluorobenzyl)-5-(isoxazol-3-yl)-1H-pyrazol-3-yl)-5-(phenylthio)pyrimidin-4-ol] | D (10 or <20 fold increase) | E (20 to 30 fold increase) | 100 to 120% | A (0.001 to <0.01 μM) | < 20 µM | 0.01 to 0.5 µM
Oc1nc(-c2cc(-c3ccon3)n(Cc3ccccc3)n2)ncc1F [Compound 41] | C (5 to <10 fold increase) | D (10 or <20 fold increase) | 80 to 100% | B (0.01 to <0.1 μM) | < 20 µM | 0.5 to 1 µM
Oc1nc(-c2cc(-c3ccon3)n(Cc3ccccc3F)n2)ncc1-c1nccs1 [Compound 42] | B (2 to <5 fold increase) | D (10 or <20 fold increase) | 40 to 60% | C (0.1 to <1 μM) | < 20 µM | 0.5 to 1 µM
Oc1nc(-c2cc(-c3ccon3)n(Cc3ccccc3F)n2)ncc1-c1ccccn1 [Compound 43] | B (2 to <5 fold increase) | D (10 or <20 fold increase) | 40 to 60% | C (0.1 to <1 μM) | < 20 µM | 1 to 5 µM
Fc1cccnc1Cn1nc(-c2ncccn2)cc1-c1ccon1 [Compound 57] | A (no increase to <2 fold increase) | A (no increase to <2 fold increase) |  |  |  | 
Fc1ncccc1Cn1nc(-c2ncccn2)cc1-c1ccon1 [Compound 66] | A (no increase to <2 fold increase) | A (no increase to <2 fold increase) |  |  |  | 
